Values joined by “and” are separate entries in the source; they are usually repeats but may differ in a detail not shown here. Identical values can stand only once.
How the values were obtained:
[1] = test system: subjects with type 2 diabetes and nephropathy; assay: Example 1: Phase 2b randomized, double-blind, placebo-controlled 12-week clinical study
Description: The primary efficacy endpoint was the change from baseline to Week 12 in log-transformed UACR with the primary analysis conducted using mixed-effects, maximum likelihood, repeated measures (MMRM) with fixed effects for treatment, country, visit, and treatment-by-visit interaction, with baseline measurement and baseline-by-visit interaction as covariates.
All safety analyses were performed on treatment-emergent adverse events only. Treatment-emergent adverse events were defined as those that first occurred or worsened on or after the date of first dose of study drug through 30 days after the last dose of study drug.

[2] = test system: subjects with type 2 diabetes and nephropathy; assay: Example 3: Phase 2b randomized, double-blind, placebo-controlled 8-week study with thoracic bioimpedance; assay type: in vivo, human; settings: for Death / Fatal adverse event: N = 16; for UACR Change from Baseline LS Mean (SE) / UACR Geometric Mean Change (Percent): baseline to final on-treatment measurement
Description: This study also included measurement of thoracic bioimpedance to assess the potential for thoracic fluid retention with atrasentan.
An equal percentage of subjects in all 3 groups experienced an adverse event (81.3%). […] (Table 17).
A mean decrease of 4 ohms in thoracic bioimpedance, as measured by the ZOE® Fluid Status Monitor, is considered clinically indicative of thoracic fluid overload. Mean thoracic bioimpedance fluctuated in all treatment groups over time, with greater mean changes in the 2 atrasentan groups than in the placebo group.

[3] = test system: ob-ZSF1 rats; assay: Example 5: preclinical study of hypotensive synergy, mean arterial pressure; assay type: in vivo, rat
Description: In the example, a preclinical animal model is used to evaluate whether atrasentan and an ARB cause a synergistic hypotensive effect.

[4] = 1.25 mg/day, baseline to final on-treatment measurement

Compound: CCCCN(CCCC)C(=O)CN1C[C@H](c2ccc3c(c2)OCO3)[C@@H](C(=O)O)[C@@H]1c1ccc(OC)cc1 [Atrasentan, (2R,3R,4S)-4-(1,3-benzodioxol-5-yl)-1-[2-(dibutylamino)-2-oxoethyl]-2-(4-methoxyphenyl)pyrrolidine-3-carboxylic acid]
- Triglycerides, Final On-Treatment Visit Mean (SD) ([1]; 1.25 mg/day): 167.4 (84.98) mg/dL
- Triglycerides, LS Mean Change from Baseline (SE) ([1]; 1.25 mg/day): −31.4 (15.31) mg/dL
- Weight, Final On-Treatment Visit Mean (SD) ([1]; 1.25 mg/day): 92.6 (18.74) kg
- diastolic blood pressure, mean change from baseline to last on-treatment visit ([1]; 1.25 mg/day): −2.74 mmHg
- fatigue leading to discontinuation ([1]; 1.25 mg/day): 3.1%
- geometric mean reduction in UACR, baseline to final on-treatment measurement ([1]; 1.25 mg/day): 40.7%
- incidence of anemia ([1]; 1.25 mg/day): 4.7%
- incidence of peripheral edema ([1]; 1.25 mg/day): 42.2%
- mean diastolic blood pressure, difference from baseline ([1]; 1.25 mg/day): statistically significant from Weeks 1 through 10
- mean increases in weight vs placebo (repeated-measures analysis) ([1]; 1.25 mg/day): statistically significantly different from the mean changes with placebo from Week 1 through Week 8
- mean systolic blood pressure, difference from baseline ([1]; 1.25 mg/day): statistically significant at Weeks 1, 8, and 10
- peripheral edema leading to discontinuation ([1]; 1.25 mg/day): 4.7%
- subjects discontinued because of an adverse event ([1]; 1.25 mg/day): 7 subjects
- subjects discontinued prematurely from the study ([1]; 1.25 mg/day): 15.6%
- subjects who discontinued study drug because of adverse events ([1]; 1.25 mg/day): 10.9%
- subjects with adverse event infection ([1]; 1.25 mg/day): 0%
- systolic blood pressure, mean change from baseline to last on-treatment visit ([1]; 1.25 mg/day): −2.98 mmHg
- triglycerides, difference from placebo ([1]; 1.25 mg/day): statistically significant
- weight, mean change from baseline to last on-treatment visit ([1]; 1.25 mg/day): 2.02 kg
- UACR Between-group Comparison Difference (90% CI) ([1]; 1.25 mg/day vs placebo): −0.51 (−0.75, −0.28)
- mean ambulatory systolic blood pressure, difference from placebo ([1]; 1.25 mg/day, Week 6): statistically significant difference
- Weight, LS Mean Change from Baseline (SE) ([1]; 1.25 mg/day, Week 12): 0.6 kg and 0.6 (0.66) kg
- UACR Change from Baseline LS Mean (SE) [1, 4]: −0.52 (0.11) log mg/g creatinine
- UACR Geometric Mean Change (Percent) [1, 4]: −40.67%
- mean HDL-C change ([1]; all treatment groups, change not clinically meaningful): decreased slightly
- hemoglobin relative to placebo ([1]; both atrasentan groups, at Week 2 and throughout the study): Statistically significantly mean decreases
- Death ([2]; 0.5 mg): 0 N (%) of Subjects
- Fatal adverse event ([2]; 0.5 mg): 0 N (%) of Subjects
- Cholesterol, Difference (95% CI) from placebo ([2]; 0.5 mg/day): 3.6 (−19.26, 26.46) mg/dL
- Cholesterol, Final On-Treatment Visit Mean (SD) ([2]; 0.5 mg/day): 155.1 (40.36) mg/dL
- Cholesterol, LS Mean Change from Baseline (SE) ([2]; 0.5 mg/day): −1.5 (7.05) mg/dL
- HDL-C, Difference (95% CI) from placebo ([2]; 0.5 mg/day): 1.9 (−3.54, 7.28) mg/dL
- HDL-C, Final On-Treatment Visit Mean (SD) ([2]; 0.5 mg/day): 41.1 (9.92) mg/dL
- HDL-C, LS Mean Change from Baseline (SE) ([2]; 0.5 mg/day): −0.5 (1.67) mg/dL
- Had ≧30% Reduction in UACR and No Edema (no moderate or severe adverse event of edema) ([2]; 0.5 mg/day): 31.3%
- LDL-C, Difference (95% CI) from placebo ([2]; 0.5 mg/day): 3.1 (−19.49, 25.75) mg/dL
- LDL-C, Final On-Treatment Visit Mean (SD) ([2]; 0.5 mg/day): 68.1 (23.33) mg/dL
- LDL-C, LS Mean Change from Baseline (SE) ([2]; 0.5 mg/day): −0.3 (6.67) mg/dL
- Percentage of Subjects with ≧30% Reduction in Log-Transformed UACR from Baseline to Final Measurement ([2]; 0.5 mg/day): 50.0%
- Percentage of Subjects with ≧40% Reduction in Log-Transformed UACR from Baseline to Final Measurement ([2]; 0.5 mg/day): 31.3%
- Percentage of Subjects with ≧50% Reduction in Log-Transformed UACR from Baseline to Final Measurement ([2]; 0.5 mg/day): 18.8%
- Triglycerides, Difference (95% CI) from placebo ([2]; 0.5 mg/day): −29.8 (−14.09, 44.49) mg/dL
- Triglycerides, Final On-Treatment Visit Mean (SD) ([2]; 0.5 mg/day): 206.1 (71.42) mg/dL
- Triglycerides, LS Mean Change from Baseline (SE) ([2]; 0.5 mg/day): −2.3 (22.89) mg/dL
- geometric mean reduction in UACR, baseline to final on-treatment measurement ([2]; 0.5 mg/day): 27.7%
- UACR Between-group Comparison Difference (90% CI) ([2]; 0.5 mg/day vs placebo): 0.04 (−0.28, 0.36)
- UACR Change from Baseline LS Mean (SE) ([2]; 0.5 mg/day): −0.32 log mg/g creatinine
- UACR Geometric Mean Change (Percent) ([2]; 0.5 mg/day): −27.69%
- Death ([2]; 1.25 mg): 0 N (%) of Subjects
- Fatal adverse event ([2]; 1.25 mg): 0 N (%) of Subjects
- Cholesterol, Difference (95% CI) from placebo ([2]; 1.25 mg/day): −14.7 (−37.99, 8.54) mg/dL
- Cholesterol, Final On-Treatment Visit Mean (SD) ([2]; 1.25 mg/day): 169.4 (46.02) mg/dL
- Cholesterol, LS Mean Change from Baseline (SE) ([2]; 1.25 mg/day): −19.9 (7.30) mg/dL
- HDL-C, Difference (95% CI) from placebo ([2]; 1.25 mg/day): −1.4 (−6.89, 4.13) mg/dL
- HDL-C, Final On-Treatment Visit Mean (SD) ([2]; 1.25 mg/day): 53.9 (22.23) mg/dL
- HDL-C, LS Mean Change from Baseline (SE) ([2]; 1.25 mg/day): −3.7 (1.73) mg/dL
- Had ≧30% Reduction in UACR and No Edema (no moderate or severe adverse event of edema) ([2]; 1.25 mg/day): 28.6%
- LDL-C, Difference (95% CI) from placebo ([2]; 1.25 mg/day): −9.8 (−33.30, 13.64) mg/dL
- LDL-C, Final On-Treatment Visit Mean (SD) ([2]; 1.25 mg/day): 78.9 (37.01) mg/dL
- LDL-C, LS Mean Change from Baseline (SE) ([2]; 1.25 mg/day): −13.3 (7.21) mg/dL
- Percentage of Subjects with ≧30% Reduction in Log-Transformed UACR from Baseline to Final Measurement ([2]; 1.25 mg/day): 42.9%
- Percentage of Subjects with ≧40% Reduction in Log-Transformed UACR from Baseline to Final Measurement ([2]; 1.25 mg/day): 42.9%
- Percentage of Subjects with ≧50% Reduction in Log-Transformed UACR from Baseline to Final Measurement ([2]; 1.25 mg/day): 35.7%
- Triglycerides, Difference (95% CI) from placebo ([2]; 1.25 mg/day): −31.0 (−108.09, 46.10) mg/dL
- Triglycerides, Final On-Treatment Visit Mean (SD) ([2]; 1.25 mg/day): 187.1 (115.90) mg/dL
- Triglycerides, LS Mean Change from Baseline (SE) ([2]; 1.25 mg/day): −3.5 (24.59) mg/dL
- geometric mean reduction in UACR, baseline to final on-treatment measurement ([2]; 1.25 mg/day): 37.4%
- total cholesterol, LDL-C, and triglycerides compared with placebo ([2]; 1.25 mg/day): greater mean decreases
- UACR Between-group Comparison Difference (90% CI) ([2]; 1.25 mg/day vs placebo): −0.11 (−0.43, 0.21)
- UACR Change from Baseline LS Mean (SE) ([2]; 1.25 mg/day): −0.47 log mg/g creatinine
- UACR Geometric Mean Change (Percent) ([2]; 1.25 mg/day): −37.45%
- decrease in MAP ([3]; 1.5 mg/kg/day combined with losartan (10 mg/kg/day)): approximately the same as the decrease in MAP when losartan was administered alone
- mean arterial pressure (MAP) ([3]; alone at 1.5 mg/kg/day or 5 mg/kg/day): did not significantly affect mean arterial pressure
